Consider three molecules from article PMC9038691, “A structural exposé of noncanonical molecular reactivity within the protein tyrosine phosphatase WPD loop” (Nature communications, 2022).

The target in one test is T1, AtPFA-DSP1^49–215 (Arabidopsis thaliana, UniProt Q9ZVN4, C150S).
T1 construct: core catalytic domain, residues 49-215; N-terminal 6xHis-MBP tag cut with TEV protease; E. coli; monomer in solution
Description: X-ray crystal structure (soak). It is filed as binding. The note with it: active site.

The target in a further test is T2, AtPFA-DSP1 (full-length) (Arabidopsis thaliana, UniProt Q9ZVN4).
T2 construct: full-length (codon-optimized cDNA, Genscript); pDest-566, N-terminal 6xHis-MBP tag cut with TEV protease; E. coli
Briefly: malachite green Pi release. The note with it: pH 7.2, 30 °C, 100 mM KCl, 0.8 mM MgCl2. It is filed as biochemical.

T1 sequence (Q9ZVN4 49-215 C150S): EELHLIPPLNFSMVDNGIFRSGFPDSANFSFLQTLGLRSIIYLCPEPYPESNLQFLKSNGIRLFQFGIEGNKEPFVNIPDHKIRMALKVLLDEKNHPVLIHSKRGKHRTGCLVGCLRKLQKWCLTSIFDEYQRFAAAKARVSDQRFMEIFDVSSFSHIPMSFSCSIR
T2 sequence (Q9ZVN4 whole entry): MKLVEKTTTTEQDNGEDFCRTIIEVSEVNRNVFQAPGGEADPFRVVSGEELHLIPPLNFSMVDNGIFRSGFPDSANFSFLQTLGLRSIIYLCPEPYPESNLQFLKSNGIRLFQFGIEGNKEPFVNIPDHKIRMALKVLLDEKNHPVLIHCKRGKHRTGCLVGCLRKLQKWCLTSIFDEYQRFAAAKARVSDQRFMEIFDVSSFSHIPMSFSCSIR

Consider `O=P(O)(O)O[C@@H]1[C@@H](OP(=O)(O)OP(=O)(O)O)[C@H](OP(=O)(O)O)[C@@H](OP(=O)(O)O)[C@@H](O)[C@H]1OP(=O)(O)O` [5-PP-InsP4, 5-diphosphoinositol 1,3,4,6-tetrakisphosphate], for which the “X-ray crystal structure (soak)” value on AtPFA-DSP1^49–215 (beta-IN and beta-OUT poses, the latter together with Pi) is “instructive crystals of AtPFA-DSP1 in complex with 5-PP-InsP4”.

With `O=P(O)(O)O[C@H]1[C@@H](OP(=O)(O)O)[C@@H](OP(=O)(O)O)[C@H](OP(=O)(O)OP(=O)(O)O)[C@@H](OP(=O)(O)O)[C@@H]1OP(=O)(O)O` [6-InsP7, 6-diphosphoinositol 1,2,3,4,5-pentakisphosphate], the Km result at AtPFA-DSP1 (full-length) is “(c), 6-InsP7”.

Turning to `O=P(O)(O)O[C@H]1[C@@H](OP(=O)(O)O)[C@H](OP(=O)(O)O)[C@@H](OP(=O)(O)OP(=O)(O)O)[C@H](OP(=O)(O)O)[C@H]1OP(=O)(O)O` [5-InsP7, 5-diphosphoinositol 1,2,3,4,6-pentakisphosphate], at AtPFA-DSP1^49–215 (substrate-trapping mutant, displaces Pi), the “X-ray crystal structure (soak)” value was “it could now be successfully substituted by 5-InsP7”.
